Here are results for two compounds from ChEMBL document CHEMBL1649295, “Pharmacokinetic-pharmacodynamic modeling of the in vitro activities of oxazolidinone antimicrobial agents against methicillin-resistant Staphylococcus aureus” (Antimicrob Agents Chemother, 2009).

Converted amounts (≈) assume the structure as drawn. The source made the active and inactive calls. The calls are words filed in the database; no cut-off is given here.

Data set [1] relates to Staphylococcus aureus. The data set is described as follows: Antibacterial activity against methicillin-resistant Staphylococcus aureus OC2878 assessed as log reduction in bacterial count at 8 times MIC after 24 hrs by time kill study. It is filed as functional.
The test system of data set [2] is Staphylococcus aureus. The data set is described as follows: Antibacterial activity against methicillin-resistant Staphylococcus aureus OC2878 assessed as inhibition of bacterial regrowth at 16 times MIC after 8 hrs by dynamic time kill study. It is filed as functional, organism-based.
Data set [3] is described as follows: Chemical stability of the compound assessed as compound degradation at 16 times MIC after 24 hrs by RP-HPLC analysis. It is filed as physicochemical.
For data set [4], the system named is Staphylococcus aureus. Put plainly: Antibacterial activity against methicillin-resistant Staphylococcus aureus OC2878 by broth macrodilution method.
Data set [5] relates to Staphylococcus aureus. The data set is described as follows: Antibacterial activity against methicillin-resistant Staphylococcus aureus OC2878 assessed as inhibition of bacterial regrowth at 16 times MIC after 24 hrs by dynamic time kill study. The class given is functional, organism-based.

What is called MIC is the lowest concentration found to suppress growth. Read a high MIC as weaker potency. `CC(=O)NC[C@H]1CN(c2ccc(N3CCOCC3)c(F)c2)C(=O)O1` [LINEZOLID]: in the data set with Staphylococcus aureus [1], the log10cfu turned out to be 2. The inhibition entry with Staphylococcus aureus [2] is “inactive”. In data set [3], the Stability entry is recorded as “Stable”. The same compound showed a minimal inhibitory concentration (MIC) with Staphylococcus aureus [4] of 1 µg/mL (≈ 2.96 µM).

Take `CC(=O)NC[C@H]1CN(c2ccc(N3Cc4cn(C)nc4C3)c(F)c2)C(=O)O1`: the log10cfu with Staphylococcus aureus [1] was 2. For the same compound, in the data set with Staphylococcus aureus [5], the inhibition entry is “Active”. For the same compound, the lowest concentration to inhibit growth against Staphylococcus aureus [4] (MIC) was 0.5 µg/mL (≈ 1.34 µM).
